Assay [1] deals with ECHCG=Echinochloa crus-galli. As to the kind of experiment: In-water applied herbicides in paddy, visual injury of weed. The assay is classed as in vivo. How it is done: (§1) Weed seeds or nutlets of the desired test plant species were planted in puddled soil (mud) prepared by mixing a shredded, non-sterilized mineral soil (50.5 percent silt, 25.5 percent clay, and 24 percent sand, with a pH of about 7.6 and an organic matter content of about 2.9 percent) and water at a 1:1 volumetric ratio. The prepared mud was dispensed in 365 mL aliquots into 16-ounce (oz.) non-perforated plastic pots with a surface area of 86.59 square centimeters (cm^2) leaving a headspace of 3 centimeters (cm) in each pot. Rice seeds were planted in Sun Gro MetroMix® 306 planting mixture, which typically has a pH of 6.0 to 6.8 and an organic matter content of about 30 percent, in plastic plug trays. Seedlings at the second or third leaf stage of growth were transplanted into 860 mL of mud contained in 32-oz. non-perforated plastic pots with a surface area of 86.59 cm^2 4 days prior to herbicide application. The paddy was created by filling the headspace of the pots with 2.5 to 3 cm of water. When required to ensure good germination and healthy plants, a fungicide treatment and/or other chemical or physical treatment was applied. The plants were grown for 4-22 days in a greenhouse with an approximate 14 h photoperiod which was maintained at about 29′C during the day and about 26° C. during the night. Nutrients were added as Osmocote® (17:6:10, N:P:K+minor nutrients) at 2 g per 16-oz. pot and 4 g per 32-oz. pot. Water was added on a regular basis to maintain the paddy flood, and supplemental lighting was provided with overhead metal halide 1000-Watt lamps as necessary. The plants were employed for testing when they reached the second or third true leaf stage.
(§2) Treatments consisted of the acid or esters of 4-amino-3-chloro-5-fluoro-6-(4-chloro-2-fluoro-3-methoxy-phenyl)pyridine-2-carboxylic acid (compound A) and various safeners alone and in combination. Forms of compound A were applied on an acid equivalent basis. Safener components were applied on an active ingredient or acid equivalent basis depending on the compound.
(§3) Treatment requirements for each compound or herbicidal component were calculated based upon the rates being tested, the concentration of active ingredient or acid equivalent in the formulation, an application volume of 2 mL per component per pot, and an application area of 86.59 cm^2 per pot.
(§4) For formulated compounds, a measured amount was placed in an individual 100 or 200 mL glass vial and was dissolved in a volume of 1.25% (v/v) Agri-Dex® crop oil concentrate to obtain application solutions.
(§5) For technical grade compounds, a weighed amount can be placed in an individual 100 to 200 mL glass vial and dissolved in a volume of acetone to obtain concentrated stock solutions. […] The concentrated stock solutions obtained can be diluted with an equivalent volume of an aqueous mixture containing 2.5% (v/v) crop oil concentrate so that the final application solutions contain 1.25% (v/v) crop oil concentrate.
(§6) Applications were made by injecting with a pipetter appropriate amounts of the application solutions, individually and sequentially, into the aqueous layer of the paddy. Control plants were treated in the same manner with the solvent blank. Applications were made so that all treated plant material received the same concentrations of acetone and crop oil concentrate.
(§7) The treated plants and control plants were placed in a greenhouse as described above and water was added as needed to maintain a paddy flood. After approximately 3 weeks the condition of the test plants as compared with that of the untreated plants was determined visually and scored on a scale of 0 to 100 percent where 0 corresponds to no injury or growth inhibition and 100 corresponds to complete kill.
Some of the safener-herbicide combinations tested, application rates and ratios employed, plant species tested, and results are given in Tables 16-17. […]

Another assay deals with ORYSA=Orysa sativa, Rice. As to the kind of experiment: In-water applied herbicides and safeners in transplanted paddy rice, visual injury. The format is in vivo. Conditions: for Mean Visual Injury (%) - 21 DAA ORYSA - ‘M202’ / Mean Visual Injury (%) - 21 DAA ORYSA - ‘Wells’: in-water applied. On the procedure:
as §1, §2, §3, §4, §5, §6, §7
Colby's equation was used to determine the herbicidal effects expected from the mixtures (Colby, S. R. 1967. Calculation of the synergistic and antagonistic response of herbicide combinations. Weeds 15:20-22.). […]

The results in this text go back to patent US10172355B2, “Safened herbicidal compositions including 4-amino-3-chloro-5-fluoro-6-(4-chloro-2-fluoro-3-methoxyphenyl)pyridine-2-carboxylic acid or a derivative thereof for use in rice” (Dow AgroSciences LLC, priority 2012, dated 2019).

With `COc1c(Cl)ccc(-c2nc(C(=O)O)c(Cl)c(N)c2F)c1F` [Acid, 4-amino-3-chloro-6-(4-chloro-2-fluoro-3-methoxyphenyl)-5-fluoropyridine-2-carboxylic acid], the “Mean Visual Injury (%) - 21 DAA ECHCG” value turned out to be 0% in assay [1] (8.75 g ae/ha); 0% in assay [1] (17.5 g ae/ha); 10% in assay [1] (35 g ae/ha); 63% in assay [1] (70 g ae/ha); 95% in assay [1] (140 g ae/ha). The “Mean Visual Injury (%) - 21 DAA ORYSA - ‘M202’” value in the assay on ORYSA=Orysa sativa, Rice (8.75 g ae/ha) is 0%; in the assay on ORYSA=Orysa sativa, Rice (17.5 g ae/ha) it was 0%; in the assay on ORYSA=Orysa sativa, Rice (35 g ae/ha), 0%; in the assay with ORYSA=Orysa sativa, Rice (70 g ae/ha) it was 3%; in the assay on ORYSA=Orysa sativa, Rice (140 g ae/ha), 25%. In addition, the “Mean Visual Injury (%) - 21 DAA ORYSA - ‘Wells’” value came to 0% in the assay with ORYSA=Orysa sativa, Rice (8.75 g ae/ha); 0% in the assay with ORYSA=Orysa sativa, Rice (17.5 g ae/ha); 0% in the assay on ORYSA=Orysa sativa, Rice (35 g ae/ha); 0% with ORYSA=Orysa sativa, Rice (70 g ae/ha); 8% in the assay on ORYSA=Orysa sativa, Rice (140 g ae/ha).
As to `COc1c(Cl)ccc(-c2nc(C(=O)OCc3ccccc3)c(Cl)c(N)c2F)c1F` [Benzyl], the “Mean Visual Injury (%) - 21 DAA ECHCG” value worked out at 23% in assay [1] (8.75 g ae/ha); 43% in assay [1] (17.5 g ae/ha); 81% in assay [1] (35 g ae/ha); 100% in assay [1] (70 g ae/ha); 100% in assay [1] (140 g ae/ha). Further, the “Mean Visual Injury (%) - 21 DAA ORYSA - ‘M202’” value in the assay on ORYSA=Orysa sativa, Rice (8.75 g ae/ha) was determined as 0%; in the assay with ORYSA=Orysa sativa, Rice (17.5 g ae/ha), 0%; with ORYSA=Orysa sativa, Rice (35 g ae/ha) it was 0%; in the assay on ORYSA=Orysa sativa, Rice (70 g ae/ha), 0%; in the assay on ORYSA=Orysa sativa, Rice (140 g ae/ha), 22%. Besides, the “Mean Visual Injury (%) - 21 DAA ORYSA - ‘Wells’” value is recorded as 0% with ORYSA=Orysa sativa, Rice (8.75 g ae/ha); 0% in the assay with ORYSA=Orysa sativa, Rice (17.5 g ae/ha); 3% with ORYSA=Orysa sativa, Rice (35 g ae/ha); 0% with ORYSA=Orysa sativa, Rice (70 g ae/ha); 15% in the assay on ORYSA=Orysa sativa, Rice (140 g ae/ha). Moreover, the selectivity margin entry in the assay with ORYSA=Orysa sativa, Rice (in-water, relative rice and barnyardgrass responses, over that of the acid) was “improved selectivity margin”.
